Legend:
PSA [1] = assay: Prostate-specific antigen (PSA) assay, secreted PSA from the eGFP assay plates; type: cell-based, human; conditions: Homo sapiens
Method: 3. Prostate-specific antigen (PSA) assay: The evaluation of PSA levels secreted into the media was performed in parallel to the eGFP assay using the same plates. After cells were incubated for 3 days, 150 μl of the media was taken from each well, and added to 150 μl of PBS.

LNCaP cells = assay: Cell viability (MTS) assay, LNCaP; type: cell-based, human; conditions: 0.1 nM R1881
Method: 1. Cell Culture: LNCaP and PC3 human prostate cancer cells were obtained from American Type Culture Collection (ATCC, Manassas, Va.) and grown in RPMI 1640 medium supplemented with 5% fetal bovine serum (FBS) (Invitrogen). […]. All cells were maintained at 37° C. in 5% CO2.
7. Cell viability assay: The PC3, LNCaP, and MDV3100-resistant cells were plated at 3,000 cells per well in RPMI 1640 containing 5% charcoal stripped serum (CSS) in a 96-well plate, treated with 0.1 nM R1881 and compounds (0-25 μM) for 96 hrs.

AR Y594D mutant = biological target: T1, AR Y594D mutant (Homo sapiens, UniProt P10275, Y594D); assay: ARR3tk-luciferase reporter assay in PC3 cells, AR Y594D; type: cell-based
T1 construct: expressed in transfected cells; host or cells: PC3
T1 sequence (P10275 whole entry Y594D): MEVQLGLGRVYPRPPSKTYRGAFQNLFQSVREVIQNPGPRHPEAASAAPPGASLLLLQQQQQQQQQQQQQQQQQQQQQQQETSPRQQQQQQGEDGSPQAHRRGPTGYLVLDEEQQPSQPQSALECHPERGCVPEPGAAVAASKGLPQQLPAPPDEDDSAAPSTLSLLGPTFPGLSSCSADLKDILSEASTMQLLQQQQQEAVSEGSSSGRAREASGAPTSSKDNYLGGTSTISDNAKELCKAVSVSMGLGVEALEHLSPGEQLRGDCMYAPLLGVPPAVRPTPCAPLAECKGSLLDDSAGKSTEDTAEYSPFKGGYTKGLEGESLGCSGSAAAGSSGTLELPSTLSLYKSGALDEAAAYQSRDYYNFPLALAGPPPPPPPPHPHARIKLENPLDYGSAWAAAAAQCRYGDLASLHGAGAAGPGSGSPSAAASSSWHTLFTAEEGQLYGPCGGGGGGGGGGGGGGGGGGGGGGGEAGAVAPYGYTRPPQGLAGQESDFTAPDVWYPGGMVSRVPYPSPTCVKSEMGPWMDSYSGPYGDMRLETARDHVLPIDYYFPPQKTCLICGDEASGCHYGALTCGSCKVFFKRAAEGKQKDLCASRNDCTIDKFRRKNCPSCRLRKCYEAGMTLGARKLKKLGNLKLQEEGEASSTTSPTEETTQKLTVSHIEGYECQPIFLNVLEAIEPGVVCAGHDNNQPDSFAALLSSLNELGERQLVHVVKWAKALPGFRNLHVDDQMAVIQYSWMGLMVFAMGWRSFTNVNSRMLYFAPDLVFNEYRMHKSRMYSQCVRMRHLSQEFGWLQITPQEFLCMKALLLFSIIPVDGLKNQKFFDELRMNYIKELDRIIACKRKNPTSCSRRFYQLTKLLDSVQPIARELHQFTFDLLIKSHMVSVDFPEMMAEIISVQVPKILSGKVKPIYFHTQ
Method: 8. Mutation Studies: The residues in the predicted binding site were mutated using the Quickchange™ Site-Directed Mutagenesis Kit as per the instructions.
9. Transient Transfection: The PC3/MCF7 cells were seeded into a 96-well plate (2,000 cells/well). After 24 hrs, the wild-type AR (50 ng/well)/AR mutants and AR3TK-luciferase plasmids (1:3) were co-transfected into PC3 cells or ERE-luciferase (50 ng/well) was transfected into MCF7 cells using transfection reagent TT20. 24 hrs after the transfection, the cells were treated with the compounds at various concentrations. And 24 hrs later, the cells were lysed and the reading was taken using a luminometer.

AR v567es = assay: ARR3tk-luciferase assay in R1-D567 cells; type: cell-based, human
PSA [2] = assay: PSA measurements, LNCaP cells, 1 nM R1881, 2 days; type: cell-based, human
Method: Following the incubation period, 150 μl of the media was taken from each well, and PSA levels were quantified using a Cobas e411 analyzer (Roche Applied Science™) according to the manufacturer's instructions. The same instrument was used to analyze serum PSA from mice during the in vivo analysis.

AR-DBD+hinge / ARE dsDNA = biological target: T2, AR-DBD+hinge / ARE dsDNA (Homo sapiens, UniProt P10275); assay: EMSA (gel shift) assay; type: biochemical; set-up: His6 (N); made in house; host or cells: E. coli BL21 (DE3)
T2 sequence (P10275 558-689): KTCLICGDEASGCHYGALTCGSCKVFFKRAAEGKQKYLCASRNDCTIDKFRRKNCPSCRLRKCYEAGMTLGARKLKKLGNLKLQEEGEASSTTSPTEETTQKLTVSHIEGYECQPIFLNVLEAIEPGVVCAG
Method: The plasmid encoding the AR-DBD+hinge was transformed into BL21 (DE3). BL21 cells designated for expression of biotin-labeled AR-DBD+hinge were co-transformed with the Pan4 AR-DBD+hinge (ampicillin selection) and biotin ligase expression vectors (pBir-Acm, chloramphenicol selection). Single colonies were grown in 2 liters of LB media supplemented with 50 μg/ml ampicillin and 35 μg/ml chloramphenicol (where appropriate) to A600 nm=0.6 before induction with 0.1 mM isopropyl β-D-1-thiogalactopyranoside for 3 h at 37° C. Cultures expressing the AR-DBD with the biotinylation sequence were simultaneously supplemented with 0.150 mM biotin during the induction step. Cell pellets were resuspended in ˜20 ml of 50 mM Tris-HCl, pH 8.0, 300 mM NaCl, 5% glycerol (Buffer A) supplemented with 10 mM imidazole and incubated with 0.1 mg/ml chicken egg white lysozyme (Sigma™) and 0.1 mM PMSF protease inhibitor for 30 min on ice. Cell lysis was achieved by sonication, followed by centrifugation at 13,000×g for 30 min at 4° C. The supernatant was rotated with 2 ml of nickel-agarose beads (GE Healthcare™) for 1 h at 4° C. and then directly loaded onto a Poly-Prep 10-ml gravity chromatography column (Bio-Rad™). Washing was performed with 2×4 ml of Buffer A supplemented with 20 mM imidazole. Pure proteins were eluted in 500-μl fractions with 2 ml of Buffer A containing 250 mM imidazole. […]

AR-V7Y594D = AR-V7Y594D (Homo sapiens, UniProt P10275, Y594D); assay: ARR3tk-luciferase reporter assay in PC3 cells, AR-V7 Y594D
Chain of AR-V7Y594D (P10275 1-644 isoform P10275-3 Y594D): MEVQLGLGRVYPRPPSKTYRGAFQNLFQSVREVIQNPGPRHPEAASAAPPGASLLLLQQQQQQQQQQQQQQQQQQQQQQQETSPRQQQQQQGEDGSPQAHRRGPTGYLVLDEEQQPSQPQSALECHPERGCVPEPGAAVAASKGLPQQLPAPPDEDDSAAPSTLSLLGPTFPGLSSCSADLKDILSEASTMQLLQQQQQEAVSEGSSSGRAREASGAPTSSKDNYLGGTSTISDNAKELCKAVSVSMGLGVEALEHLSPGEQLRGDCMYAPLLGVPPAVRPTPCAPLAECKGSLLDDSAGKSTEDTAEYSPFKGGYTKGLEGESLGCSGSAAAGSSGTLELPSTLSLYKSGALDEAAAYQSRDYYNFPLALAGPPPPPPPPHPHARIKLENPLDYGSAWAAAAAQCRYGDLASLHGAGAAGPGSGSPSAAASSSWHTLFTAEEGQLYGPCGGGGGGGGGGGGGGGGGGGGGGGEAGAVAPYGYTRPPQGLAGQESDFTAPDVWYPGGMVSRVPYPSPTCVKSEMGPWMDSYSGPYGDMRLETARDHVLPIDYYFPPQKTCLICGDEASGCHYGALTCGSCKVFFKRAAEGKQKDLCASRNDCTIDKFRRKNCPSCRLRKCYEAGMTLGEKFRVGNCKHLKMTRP
Method: Cells were then treated with compounds at various concentrations and 0.1 nMR1881 (in 100% ethanol) for 24 h. […] Cell lysis was carried out with 60 μl of 1X passive lysis buffer/well (Promega™)
20 μl of cell lysate from each well were mixed with 50 μl of luciferase assay reagent (Promega™), and luminescence was recorded on a TECAN™ M200pro plate reader. Luciferase assays with splice variant AR were performed the same way but with only 5 ng of pcDNA3.1 AR-V7 (to limit the high level of AR-V7 expression) and no R1881.

[3] = LNCaP eGFP cells, R1881, secreted PSA

Brc1ncn(-c2csc(N3CCOCC3)n2)c1Br [Compound 14449]
IC50 (PSA [1]; [3]): 170 nM
IC50 (PSA [1]; Series 1): 170 nM
inhibition of cell growth, LNCaP (LNCaP cells): concentration-dependent inhibition of the cell growth
concentration at which Y594D AR is inhibited (AR Y594D mutant; PC3 cells): ≥ 25 µM
inhibition of AR v567es transcriptional activity (AR v567es): could inhibit
IC50 secreted PSA (PSA [2]): sub-micromolar
protein-DNA complex formation (gel shift) (AR-DBD+hinge / ARE dsDNA): could not prevent protein-DNA complex formation
inhibition of AR-V7Y594D transcriptional activity (AR-V7Y594D): could not be inhibited

c1ccc(-c2csc(N3CCOCC3)n2)cc1 [Compound 14228, 4-(4-phenylthiazol-2-yl)morpholine]
IC50 (PSA [1]; [3]): 188 nM
IC50 (PSA [1]; Series 1): 280 nM
inhibition of cell growth, LNCaP (LNCaP cells): strongly inhibits
inhibition of Y594D AR luciferase expression (AR Y594D mutant): not affected
inhibition of AR v567es transcriptional activity (AR v567es): could inhibit
IC50 secreted PSA (PSA [2]): sub-micromolar
protein-DNA complex formation (gel shift) (AR-DBD+hinge / ARE dsDNA): could not prevent protein-DNA complex formation
inhibition of AR-V7Y594D transcriptional activity (AR-V7Y594D): could not be inhibited
